Assay results: PubChem BioAssay AID686936 (Broad Institute, 2013)

Tested on: LuxO (D47E) transcriptional regulator, Vibrio cholerae O395
Test: PubChem AID 686936
Settings: stronger effect = lower value
[1] = PK/LDH coupled NADH A340, at 100 µM
[2] = PK/LDH coupled NADH A340, rate, at 1 µM
[3] = PK/LDH coupled NADH A340, rate, at 25 µM

## Cc1ccc2cc3c(NC(=O)c4ccco4)nn(C)c3nc2c1
[1]
  ATPase rate (delta OD340/min): 0.00981
[2]
  ATPase rate (delta OD340/min): 0.0527
[3]
  ATPase rate (delta OD340/min): 0.0182

## O=C(Nc1nnc(-c2ccc3c(c2)OCCO3)o1)C1CCCCC1
[1]
  ATPase rate (delta OD340/min): 0.0424
[2]
  ATPase rate (delta OD340/min): 0.0644
[3]
  ATPase rate (delta OD340/min): 0.0279
